From paper PMC10178848, “Modulating fast skeletal muscle contraction protects skeletal muscle in animal models of Duchenne muscular dystrophy” (The Journal of Clinical Investigation, 2023)

Tested on: GRMD plasma proteins
Format: in vivo, dog
Settings: Post-Treatment to GRMD baseline; Increased in GRMD

Compound: O=c1ccc(-c2cnc(OCC(F)(F)F)nc2)nn1Cc1cncc(F)c1 [EDG-5506]
- Change from GRMD Baseline (fraction): Apolipoprotein E (isoform E3) (APOE): 0.08 fraction
- Change from GRMD Baseline (fraction): Apolipoprotein E (isoform E4) (APOE): 0.1456 fraction
- Change from GRMD Baseline (fraction): Apoptosis regulator Bcl-2 (BCL2): 0.0105 fraction
- Change from GRMD Baseline (fraction): Artemin (ARTN): -0.0439 fraction
- Change from GRMD Baseline (fraction): Arylsulfatase B (ARSB): -0.1402 fraction
- Change from GRMD Baseline (fraction): B-cell receptor CD22 (CD22): -0.069 fraction
- Change from GRMD Baseline (fraction): Baculoviral IAP repeat-containing protein 5 (BIRC5): 0.0116 fraction
- Change from GRMD Baseline (fraction): Basal Cell Adhesion Molecule (BCAM): -0.0408 fraction
- Change from GRMD Baseline (fraction): Bcl-2-like protein 1 (BCL2L1): 0.0111 fraction
- Change from GRMD Baseline (fraction): Bone sialoprotein 2 (IBSP): -0.0621 fraction
- Change from GRMD Baseline (fraction): C-C motif chemokine 13 (CCL13): -0.0609 fraction
- Change from GRMD Baseline (fraction): C-C motif chemokine 23 (CCL23): -0.0197 fraction
- Change from GRMD Baseline (fraction): CCAAT/enhancer-binding protein beta (CEBPB): -0.0884 fraction
- Change from GRMD Baseline (fraction): CD59 glycoprotein (CD59): 0.0101 fraction
- Change from GRMD Baseline (fraction): Calcineurin (PPP3CA PPP3R1): -0.1169 fraction
- Change from GRMD Baseline (fraction): Calcineurin subunit B type 1 (PPP3R1): 0.0394 fraction
- Change from GRMD Baseline (fraction): Calcium/calmodulin-dependent protein kinase type 1 (CAMK1): -0.0409 fraction
- Change from GRMD Baseline (fraction): Calcium/calmodulin-dependent protein kinase type 1D (CAMK1D): -0.0326 fraction
- Change from GRMD Baseline (fraction): Calcium/calmodulin-dependent protein kinase type II subunit alpha (CAMK2A): -0.2874 fraction
- Change from GRMD Baseline (fraction): Calcium/calmodulin-dependent protein kinase type II subunit beta (CAMK2B): -0.2753 fraction
- Change from GRMD Baseline (fraction): Calcium/calmodulin-dependent protein kinase type II subunit delta (CAMK2D): -0.216 fraction
- Change from GRMD Baseline (fraction): Calpain I (CAPN1 CAPNS1): 0.0953 fraction
- Change from GRMD Baseline (fraction): Calpastatin (CAST): -0.0561 fraction
- Change from GRMD Baseline (fraction): Carbonic anhydrase 3 (CA3): -0.1807 fraction
- Change from GRMD Baseline (fraction): Cardiotrophin-1 (CTF1): -0.0345 fraction
- Change from GRMD Baseline (fraction): Catalase (CAT): -0.0112 fraction
- Change from GRMD Baseline (fraction): Choline/ethanolamine kinase (CHKB): -0.0392 fraction
- Change from GRMD Baseline (fraction): Chymase (CMA1): -0.0173 fraction
- Change from GRMD Baseline (fraction): Clusterin (CLU): 0.1057 fraction
- Change from GRMD Baseline (fraction): Complement component C6 (C6): 0.2667 fraction
- Change from GRMD Baseline (fraction): Complement component C8 (C8A C8B C8G): 0.004 fraction
- Change from GRMD Baseline (fraction): Complement factor D (CFD): 0.0267 fraction
- Change from GRMD Baseline (fraction): Creatine kinase M-type (CKM): -0.092 fraction
- Change from GRMD Baseline (fraction): Creatine kinase M-type:Creatine kinase B-type heterodimer (CKB CKM): -0.1124 fraction
- Change from GRMD Baseline (fraction): Cyclin-dependent kinase inhibitor 1B (CDKN1B): -0.1243 fraction
- Change from GRMD Baseline (fraction): Cysteine and glycine-rich protein 3 (CSRP3): -0.1208 fraction
- Change from GRMD Baseline (fraction): Cytochrome c (CYCS): -0.3895 fraction
- Change from GRMD Baseline (fraction): DNA repair protein RAD51 homolog 1 (RAD51): 0.0454 fraction
- Change from GRMD Baseline (fraction): Desmoglein-1 (DSG1): 0.0063 fraction
- Change from GRMD Baseline (fraction): Dickkopf-like protein 1 (DKKL1): -0.0126 fraction
- Change from GRMD Baseline (fraction): Down syndrome cell adhesion molecule (DSCAM): -0.0254 fraction
- Change from GRMD Baseline (fraction): Dual specificity mitogen-activated protein kinase kinase 1 (MAP2K1): -0.2424 fraction
- Change from GRMD Baseline (fraction): Dual specificity protein phosphatase 3 (DUSP3): -0.1403 fraction
- Change from GRMD Baseline (fraction): Dynein light chain roadblock-type 1 (DYNLRB1): -0.3202 fraction
- Change from GRMD Baseline (fraction): Ectonucleoside triphosphate diphosphohydrolase 1 (ENTPD1): -0.0389 fraction
- Change from GRMD Baseline (fraction): Endothelin-converting enzyme 1 (ECE1): -0.0078 fraction
- Change from GRMD Baseline (fraction): Ephrin type-A receptor 1 (EPHA1): -0.0034 fraction
- Change from GRMD Baseline (fraction): Ephrin type-B receptor 6 (EPHB6): 0.0412 fraction
- Change from GRMD Baseline (fraction): Epidermal growth factor (EGF): -0.0427 fraction
- Change from GRMD Baseline (fraction): Epidermal growth factor receptor variant III (EGFR): -0.0407 fraction
- Change from GRMD Baseline (fraction): Erythropoietin receptor (EPOR): -0.0103 fraction
- Change from GRMD Baseline (fraction): Estrogen receptor (ESR1): -0.0238 fraction
- Change from GRMD Baseline (fraction): Eukaryotic translation initiation factor 4H (EIF4H): -0.3775 fraction
- Change from GRMD Baseline (fraction): Eukaryotic translation initiation factor 4 gamma 2 (EIF4G2): -0.2701 fraction
- Change from GRMD Baseline (fraction): Extracellular matrix protein 1 (ECM1): 0.014 fraction
- Change from GRMD Baseline (fraction): Fibroblast growth factor 8 isoform B (FGF8): -0.0376 fraction
- Change from GRMD Baseline (fraction): Fibroblast growth factor 9 (FGF9): -0.0507 fraction
- Change from GRMD Baseline (fraction): Fibronectin Fragment 4 (FN1): -0.0265 fraction
- Change from GRMD Baseline (fraction): Follistatin (FST): -0.0231 fraction
- Change from GRMD Baseline (fraction): Fractalkine (CX3CL1): 0.0106 fraction
